# According to US20230285347A1, “Preterm Labour with Prostaglandin E2 Receptor Agonists” (IMPERIAL COLLEGE INNOVATIONS LIMITED, priority 2020, published 2023):
# How the values were obtained:
# EP2 [1] = molecular target: T1, EP2 (Homo sapiens, UniProt P43116); assay: Intracellular calcium response in primary myometrial cells; format: cell-based; details: PGN9856i 100 nM, FIG. 6
# T1 construct: primary human myocytes cultured from term pregnant, non-labouring, myometrium; endogenous in cells; host or cells: primary human myometrial cells (myocytes) cultured from pregnant myometrium
# T1 sequence (P43116 whole entry): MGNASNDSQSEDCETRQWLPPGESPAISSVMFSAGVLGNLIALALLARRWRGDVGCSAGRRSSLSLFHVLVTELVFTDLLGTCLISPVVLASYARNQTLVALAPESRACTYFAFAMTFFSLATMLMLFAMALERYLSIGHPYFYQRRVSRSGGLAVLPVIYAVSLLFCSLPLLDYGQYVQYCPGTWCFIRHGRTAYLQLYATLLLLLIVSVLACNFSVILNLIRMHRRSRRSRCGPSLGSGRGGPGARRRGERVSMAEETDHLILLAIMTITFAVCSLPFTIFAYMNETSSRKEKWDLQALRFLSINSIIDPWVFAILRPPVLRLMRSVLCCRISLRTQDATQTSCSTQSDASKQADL
# Source text: One-way ANOVA with Dunnet's multiple comparison post-hoc test: **p<0.01, and (B) calcium intensity traces over time from representative cells from (A). PGN9856i is unable to elicit intracellular calcium release in primary myometrial cells.
# In the myometrium EP2 is an important regulator of parturition. To assess if PGN9856i, butaprost and AH13205 induce similar second messenger profiles in the myometrium as HEK 293 cells, primary human myocytes cultured from term pregnant, non-labouring, myometrium, were treated with each ligand and intracellular cAMP, calcium and PGE2 release was measured.
# Myometrial tissue was acquired at St. Mary's hospital, Queen Charlotte and Chelsea hospital and Charing Cross hospital, London. Tissue was obtained from women provided with informed written consent with the approval from the Riverside Research Ethics Committee (RREC 3357, 1997-5089, 19/LO/1657) and experiments were carried out under the committee's guidelines and recommendations. Tissues were obtained from term (38+0-40 weeks gestation) pregnant women undergoing elective caesarean from the upper margin of the incision made at the lower segment of the uterus, before or after the onset of labor. Tissues taken from women in early labour (<3 cm cervical dilation) or late labour (>3 cm cervical dilation) with/without induction with syntocinon, an oxytocin analogue. […]
# EP2 [2] = molecular target: T1, EP2; assay: cAMP signalling in myometrial cells from different labouring groups, EP2 agonist; format: cell-based; details: butaprost 10 μM, FIG. 8
# Description: L=non-labouring, L+E=early stage spontaneous labour, L+L=late stage spontaneous labour, L+SE=early stage induced labour, L+SL=late stage induced labour. Myometrial cells from different labouring groups were treated with IBMX (5 minutes, 0.5 mM) before 1 minute stimulation with IBMX with/without butaprost (10 μM) or isoproterenol (10 μM). cAMP concentrations were normalised to protein. Data shown as mean±SEM, L−n=4. All other groups n=5. Each treatment compared to L− using one-way ANOVA with Dunnett's multiple comparison post-hoc test: **p<0.01, ***p<0.001, ****p<0.0001.
# Myometrial tissue was acquired at St. Mary's hospital, Queen Charlotte and Chelsea hospital and Charing Cross hospital, London. Tissue was obtained from women provided with informed written consent with the approval from the Riverside Research Ethics Committee (RREC 3357, 1997-5089, 19/LO/1657) and experiments were carried out under the committee's guidelines and recommendations. Tissues were obtained from term (38+0-40 weeks gestation) pregnant women undergoing elective caesarean from the upper margin of the incision made at the lower segment of the uterus, before or after the onset of labor. Tissues taken from women in early labour (<3 cm cervical dilation) or late labour (>3 cm cervical dilation) with/without induction with syntocinon, an oxytocin analogue. Tissue was only taken from uncomplicated, singleton pregnancies.
# Tissue was stored at 4° C. in phosphate buffered saline until fine dissection with scalpels and dissociation at 37° C. for 1 hour in a sterile-filtered mix of Dulbecco's modified Eagle's medium (DMEM) (Sigma Aldrich)/Ham's F-12 Nutrient Mixture (Sigma Aldrich) and serum-free DMEM (Sigma Aldrich) (1:1 v/v) containing collagenase 1A (Sigma Aldrich)(1 mg/ml), collagenase X (Sigma Aldrich)(1 mg/ml) and bovine serum albumin (Sigma Aldrich) (2 mg/ml). Dissociation was ended using DMEM 10% fetal bovine serum (Sigma Aldrich) and cell suspension was obtained using a 40-μm cell strainer before centrifugation at 3000 rpm for 5 minutes. […]
SMILES,activation of calcium pathway (EP2 [1]),agonist-induced cAMP signalling in labouring groups vs non-labouring (EP2 [2]; all labouring groups),"reduction of agonist-stimulated cAMP, non-labouring vs spontaneous early labour (EP2 [2]; spontaneous early labour samples) [fold]","reduction of agonist-stimulated cAMP, non-labouring vs spontaneous late labour (EP2 [2]; spontaneous late labour samples) [fold]"
"CC(C)OC(=O)COc1cccc(NC(=O)c2cc(-c3cccc(F)c3)ccc2F)c1 [PGN9856i, propan-2-yl 2-(3-{3′,4-difluoro-[1,1′-biphenyl]-3-amido}phenoxy)acetate]",unable to activate calcium,–,–,–
CCCC1([C@H](O)C/C=C/[C@H]2[C@H](O)CC(=O)[C@@H]2CCCCCCC(=O)OC)CCC1 [butaprost],–,significantly attenuated in all labouring groups,2.5,10
